Test results taken from US20250144094A1 (Erasca, Inc., priority 2021, published 2025).

Each compound was assayed against T1, Recombinant human ULK1 (1-649) (Homo sapiens (Human), UniProt O75385) (assay: ULK1 ADP Glo kinase activity assay (MBP substrate)). Settings: 25° C., 40 minutes, read-out: ULK1 biochemical IC50.
Protocol: Recombinant human ULK1 (1-649) protein expressed in Sf9 insect cells was obtained from SignalChem (Vancouver, BC), catalog #U01-11G. Active kinase was purified via N-terminal GST tag to >85% purity.
ADP GLO Kinase Assay Reagents were obtained from Promega Corp (Madison, WI), catalog #V9104.
MBP (myelin basic protein) substrate, bovine, purified, was obtained from Sigma (St. Louis, MO), catalog #M1891.
ULK1 inhibitor potency was determined using the luminescent ADP Glo Kinase Assay (Promega), a universal ADP detection system that measures kinase activity by quantifying the amount of ADP produced during a kinase reaction. ULK1 kinase reactions are performed in a standard 96-well microplate (20 uL reaction volume) at 25° C. for 40 minutes in the presence or absence of the test compound (12-point dilution series starting at 10 uM). Addition of MBP substrate and ATP initiates the kinase reaction.
The standard ADP Glo assay is performed in two steps. In step one, following the kinase reaction, an equal volume of ADP-Glo™ Reagent (20 uL) is added to terminate the kinase reaction and deplete the remaining ATP. In the second step, the Kinase Detection Reagent (10 uL) is added to simultaneously convert ADP to ATP and allow the newly synthesized ATP to be measured using a luciferase/luciferin reaction. Step two of the ADP Glo assay is performed in a white 384-well plate (20 uL final volume). Thirty minutes after the addition of the Detection reagent, light generated from the luciferase reaction is measured (1 second exposure) using a microplate compatible luminometer (CLARIOstar, BMG Labtech).
Inhibition of ULK1 kinase activity is determined for each test compound by comparison to DMSO only control wells. Inhibitor IC50 was calculated by plotting the change in luminescence after 30 minutes (response) versus inhibitor concentration (in log molar) then applying the four-parameter variable slope curve fit (GraphPad Prism). Inhibition of ULK1 in biochemical assay is found in Table 3.

T1 sequence (O75385 1-649): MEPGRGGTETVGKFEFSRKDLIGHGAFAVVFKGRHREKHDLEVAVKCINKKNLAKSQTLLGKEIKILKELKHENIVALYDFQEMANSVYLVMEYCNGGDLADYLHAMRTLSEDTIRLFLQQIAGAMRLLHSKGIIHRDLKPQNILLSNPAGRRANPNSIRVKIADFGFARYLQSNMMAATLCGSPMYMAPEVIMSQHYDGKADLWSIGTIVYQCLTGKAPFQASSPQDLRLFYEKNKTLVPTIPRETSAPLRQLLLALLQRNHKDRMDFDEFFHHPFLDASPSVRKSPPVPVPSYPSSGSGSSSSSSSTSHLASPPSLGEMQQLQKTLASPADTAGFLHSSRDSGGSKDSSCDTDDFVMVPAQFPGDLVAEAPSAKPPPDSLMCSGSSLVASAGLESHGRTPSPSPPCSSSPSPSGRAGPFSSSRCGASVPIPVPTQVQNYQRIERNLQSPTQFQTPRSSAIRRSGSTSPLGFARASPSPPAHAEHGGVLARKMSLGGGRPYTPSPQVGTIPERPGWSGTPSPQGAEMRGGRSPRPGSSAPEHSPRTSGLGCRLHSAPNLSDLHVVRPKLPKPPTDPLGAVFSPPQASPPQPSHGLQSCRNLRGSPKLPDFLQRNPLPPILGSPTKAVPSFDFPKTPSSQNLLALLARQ

Q: With `NC(=O)c1csc(-c2nc(Nc3cc4c(cc3Cl)CNCC4)ncc2C(F)(F)F)c1` [Example 1, 5-(2-((7-chloro-1,2,3,4-tetrahydroisoquinolin-6-yl)amino)-5-(trifluoromethyl)pyrimidin-4-yl)thiophene-3-carboxamide] as the compound, how does the IC50 read?
A: ≤ 10 nM

Q: For `CN(C)C(=O)c1csc(-c2nc(Nc3cc4c(cc3Cl)CNCC4)ncc2C(F)(F)F)c1` [Example 2, 5-(2-((7-chloro-1,2,3,4-tetrahydroisoquinolin-6-yl)amino)-5-(trifluoromethyl)pyrimidin-4-yl)-N,N-dimethylthiophene-3-carboxamide], which IC50 is on record?
A: 10 to 50 nM

Q: For `CN(C)C(=O)c1ccc(-c2nc(Nc3cc4c(cc3Cl)CNCC4)ncc2C(F)(F)F)s1` [Example 3, 5-(2-((7-chloro-1,2,3,4-tetrahydroisoquinolin-6-yl)amino)-5-(trifluoromethyl)pyrimidin-4-yl)-N,N-dimethylthiophene-2-carboxamide], which IC50 is on record?
A: ≤ 10 nM

Q: With `O=C1NCCc2sc(-c3nc(Nc4cc5c(cc4Cl)CNCC5)ncc3C(F)(F)F)cc21` [Example 4, 2-(2-((7-chloro-1,2,3,4-tetrahydroisoquinolin-6-yl)amino)-5-(trifluoromethyl)pyrimidin-4-yl)-6,7-dihydrothieno[3,2-c]pyridin-4(5H)-one] as the compound, how does the IC50 read?
A: ≤ 10 nM

Q: `NC(=O)c1csc(-c2nc(Nc3cc4c(cc3Cl)CN(C3CNC3)CC4)ncc2C(F)(F)F)c1` [Example 5, 5-(2-((2-(azetidin-3-yl)-7-chloro-1,2,3,4-tetrahydroisoquinolin-6-yl)amino)-5-(trifluoromethyl)pyrimidin-4-yl)thiophene-3-carboxamide] was tested. Which IC50 did it give?
A: ≤ 10 nM

Q: With `CNC(=O)c1csc(-c2nc(Nc3cc4c(cc3Cl)CNCC4)ncc2C(F)(F)F)c1` [Example 6, 5-(2-((7-chloro-1,2,3,4-tetrahydroisoquinolin-6-yl)amino)-5-(trifluoromethyl)pyrimidin-4-yl)-N-methylthiophene-3-carboxamide] as the compound, how does the IC50 read?
A: 50 to 100 nM

Q: Which IC50 does the source give for `NC(=O)c1csc(-c2nc(Nc3cc4c(cc3Cl)CNC4)ncc2C(F)(F)F)c1` [Example 7, 5-(2-((6-chloroisoindolin-5-yl)amino)-5-(trifluoromethyl)pyrimidin-4-yl)thiophene-3-carboxamide] here?
A: ≤ 10 nM

Q: How did the IC50 turn out when `FC(F)(F)c1cnc(Nc2cc3c(cc2Cl)CNCC3)nc1-c1cc(C2=NCCO2)cs1` [Example 8, 7-chloro-N-(4-(4-(4,5-dihydrooxazol-2-yl)thiophen-2-yl)-5-(trifluoromethyl)pyrimidin-2-yl)-1,2,3,4-tetrahydroisoquinolin-6-amine] was run?
A: 10 to 50 nM

Q: With `CCc1cc2c(cc1Nc1ncc(C(F)(F)F)c(-c3cc(C(N)=O)cs3)n1)CCNC2` [Example 9, 5-(2-((7-ethyl-1,2,3,4-tetrahydroisoquinolin-6-yl)amino)-5-(trifluoromethyl)pyrimidin-4-yl)thiophene-3-carboxamide] as the compound, how does the IC50 read?
A: ≤ 10 nM

Q: Which IC50 does the source give for `NC(=O)c1csc(-c2nc(Nc3cc4c(cc3C3CC3)CNCC4)ncc2C(F)(F)F)c1` [Example 10, 5-(2-((7-cyclopropyl-1,2,3,4-tetrahydroisoquinolin-6-yl)amino)-5-(trifluoromethyl)pyrimidin-4-yl)thiophene-3-carboxamide] here?
A: ≤ 10 nM

Q: `CN1CC(N2CCc3cc(Nc4ncc(C(F)(F)F)c(-c5cc(C(N)=O)cs5)n4)c(Cl)cc3C2)C1` [Example 11, 5-(2-((7-chloro-2-(1-methylazetidin-3-yl)-1,2,3,4-tetrahydroisoquinolin-6-yl)amino)-5-(trifluoromethyl)pyrimidin-4-yl)thiophene-3-carboxamide] was tested. Which IC50 did it give?
A: 10 to 50 nM

Q: `CN1CC(N2Cc3cc(Cl)c(Nc4ncc(C(F)(F)F)c(-c5cc(C(N)=O)cs5)n4)cc3C2)C1` [Example 12, 5-(2-((6-chloro-2-(1-methylazetidin-3-yl)isoindolin-5-yl)amino)-5-(trifluoromethyl)pyrimidin-4-yl)thiophene-3-carboxamide] was tested. Which IC50 did it give?
A: ≤ 10 nM

Q: For `CCc1cc2c(cc1Nc1ncc(C(F)(F)F)c(-c3cc(C(N)=O)cs3)n1)CCN(C)C2` [Example 13, 5-(2-((7-ethyl-2-methyl-1,2,3,4-tetrahydroisoquinolin-6-yl)amino)-5-(trifluoromethyl)pyrimidin-4-yl)thiophene-3-carboxamide], which IC50 is on record?
A: ≤ 10 nM

Q: `CN1CCc2cc(Nc3ncc(C(F)(F)F)c(-c4cc(C(N)=O)cs4)n3)c(C3CC3)cc2C1` [Example 14, 5-(2-((7-cyclopropyl-2-methyl-1,2,3,4-tetrahydroisoquinolin-6-yl)amino)-5-(trifluoromethyl)pyrimidin-4-yl)thiophene-3-carboxamide] was tested. Which IC50 did it give?
A: ≤ 10 nM

Q: How did the IC50 turn out when `Nc1csc(-c2nc(Nc3cc4c(cc3Cl)CNCC4)ncc2C(F)(F)F)c1` [Example 15, N-(4-(4-aminothiophen-2-yl)-5-(trifluoromethyl)pyrimidin-2-yl)-7-chloro-1,2,3,4-tetrahydroisoquinolin-6-amine] was run?
A: 10 to 50 nM

Q: How did the IC50 turn out when `CS(=O)(=O)Nc1csc(-c2nc(Nc3cc4c(cc3Cl)CNCC4)ncc2C(F)(F)F)c1` [Example 16, N-(5-(2-((7-chloro-1,2,3,4-tetrahydroisoquinolin-6-yl)amino)-5-(trifluoromethyl)pyrimidin-4-yl)thiophen-3-yl)methanesulfonamide] was run?
A: ≤ 10 nM

The compounds below were run against T1, Recombinant human ULK1 (1-649) (assay: ULK1 ADP Glo kinase activity assay, new method (ULKtide peptide substrate)). Settings: 25° C., 40 minutes, read-out: ULK1 biochemical IC50.
Summary of the method: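 GST-tagged human ULK1 (1-649) from Sf9 cells was reacted with ULKtide peptide and ATP for 40 min at 25 °C across 12-point compound dilutions from 10 μM. ADP formed was quantified by ADP-Glo luminescence; IC50 came from four-parameter fits relative to DMSO controls.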

Q: `C[C@H]1CN(c2ccc(Nc3ncc(C(F)(F)F)c(-c4cc5c(s4)C(=O)N(C)CCS5(=O)=O)n3)c(C3CC3)c2)CCN1` [Example 380, (S)-7-(2-((2-cyclopropyl-4-(3-methylpiperazin-1-yl)phenyl)amino)-5-(trifluoromethyl)pyrimidin-4-yl)-4-methyl-3,4-dihydrothieno[2,3-f][1,4]thiazepin-5(2H)-one 1,1-dioxide] was tested. Which IC50 did it give?
A: ≤ 5 nM

Q: Which IC50 does the source give for `CN1CCS(=O)(=O)c2cc(-c3nc(Nc4cnc(N5C[C@H]6C[C@@H]5CN6)cc4C4CC4)ncc3C(F)(F)F)sc2C1=O` [Example 382, 7-(2-((6-((1R,4R)-2,5-diazabicyclo[2.2.1]heptan-2-yl)-4-cyclopropylpyridin-3-yl)amino)-5-(trifluoromethyl)pyrimidin-4-yl)-4-methyl-3,4-dihydrothieno[2,3-f][1,4]thiazepin-5(2H)-one 1,1-dioxide] here?
A: ≤ 5 nM

Q: For `CN1CCS(=O)(=O)c2cc(-c3nc(Nc4cnc(N5CC6CC(C5)N6)cc4C4CC4)ncc3C(F)(F)F)sc2C1=O` [Example 383, 7-(2-((6-(3,6-diazabicyclo[3.1.1]heptan-3-yl)-4-cyclopropylpyridin-3-yl)amino)-5-(trifluoromethyl)pyrimidin-4-yl)-4-methyl-3,4-dihydrothieno[2,3-f][1,4]thiazepin-5(2H)-one 1,1-dioxide], which IC50 is on record?
A: ≤ 5 nM

Q: How did the IC50 turn out when `O=C1c2sc(-c3nc(Nc4cnc(N5CC6CC(C5)N6)cc4C4CC4)ncc3C(F)(F)F)cc2S(=O)(=O)CCN1C1COC1` [Example 384, 7-(2-((6-(3,6-diazabicyclo[3.1.1]heptan-3-yl)-4-cyclopropylpyridin-3-yl)amino)-5-(trifluoromethyl)pyrimidin-4-yl)-4-(oxetan-3-yl)-3,4-dihydrothieno[2,3-f][1,4]thiazepin-5(2H)-one 1,1-dioxide] was run?
A: ≤ 5 nM

Q: With `CCc1cc(N2CCN[C@H](C)C2)ccc1Nc1ncc(C(F)(F)F)c(-c2cc3c(s2)C(=O)N(C2COC2)CCS3(=O)=O)n1` [Example 406, (R)-7-(2-((2-ethyl-4-(3-methylpiperazin-1-yl)phenyl)amino)-5-(trifluoromethyl)pyrimidin-4-yl)-4-(oxetan-3-yl)-3,4-dihydrothieno[2,3-f][1,4]thiazepin-5(2H)-one 1,1-dioxide] as the compound, how does the IC50 read?
A: ≤ 5 nM

Q: With `CCc1cc(N2CCN[C@@H](CO)C2)ccc1Nc1ncc(C(F)(F)F)c(-c2cc3c(s2)C(=O)N(C2CC2)CCS3(=O)=O)n1` [Example 407, (R)-4-cyclopropyl-7-(2-((2-ethyl-4-(3-(hydroxymethyl)piperazin-1-yl)phenyl)amino)-5-(trifluoromethyl)pyrimidin-4-yl)-3,4-dihydrothieno[2,3-f][1,4]thiazepin-5(2H)-one 1,1-dioxide] as the compound, how does the IC50 read?
A: ≤ 5 nM

Q: `CCc1cc(N2CCN(C)[C@@H](CO)C2)ccc1Nc1ncc(C(F)(F)F)c(-c2cc3c(s2)C(=O)N(C2CC2)CCS3(=O)=O)n1` [Example 408, (R)-4-cyclopropyl-7-(2-((2-ethyl-4-(3-(hydroxymethyl)-4-methylpiperazin-1-yl)phenyl)amino)-5-(trifluoromethyl)pyrimidin-4-yl)-3,4-dihydrothieno[2,3-f][1,4]thiazepin-5(2H)-one 1,1-dioxide] was tested. Which IC50 did it give?
A: ≤ 5 nM

Q: `CCc1cc(N2CCN(C)[C@@H](CO)C2)ccc1Nc1ncc(C(F)(F)F)c(-c2cc3c(s2)C(=O)N(C2COC2)CCS3(=O)=O)n1` [Example 409, (R)-7-(2-((2-Ethyl-4-(3-(hydroxymethyl)-4-methylpiperazin-1-yl)phenyl)amino)-5-(trifluoromethyl)pyrimidin-4-yl)-4-(oxetan-3-yl)-3,4-dihydrothieno[2,3-f][1,4]thiazepin-5(2H)-one 1,1-dioxide] was tested. Which IC50 did it give?
A: ≤ 5 nM
